The record followed here is PubChem BioAssay AID330 (DTP/NCI, 2004).

For this assay, the system named is P388 leukemia ip, CD2F1 mice, survival T/C. As to the kind of experiment: NCI In Vivo Anticancer Drug Screen. Data for tumor model P388 Leukemia (intraperitoneal) in CD2F1 (CDF1) mice. The following applies: endpoint: median survival time, higher = longer survival. A digest of the protocol: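 Mice carrying the transplanted tumor received test compound or vehicle. Survival was recorded in each group, and the value is the treated-group measurement divided by that of the vehicle-treated control group.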

[1] abbreviates: dose: 50.0 mg/kg/injection, schedule: Q01DX009 (ip), vehicle: saline with Tween-80.
[2] abbreviates: dose: 100.0 mg/kg/injection, schedule: Q01DX009 (ip), vehicle: saline with Tween-80.
Where [3] appears, read: dose: 200.0 mg/kg/injection, schedule: Q01DX009 (ip), vehicle: saline with Tween-80.
[4] abbreviates: dose: 12.5 mg/kg/injection, schedule: Q01DX009 (ip), vehicle: water.
Where [5] appears, read: dose: 25.0 mg/kg/injection, schedule: Q01DX009 (ip), vehicle: water.
[6] abbreviates: dose: 50.0 mg/kg/injection, schedule: Q01DX005 (ip), vehicle: Klucel (hydroxypropylcellulose) (HPC).
Where [7] appears, read: dose: 50.0 mg/kg/injection, schedule: Q01DX005 (ip), vehicle: saline with Tween-80.
[8] abbreviates: dose: 100.0 mg/kg/injection, schedule: Q01DX005 (ip), vehicle: saline with Tween-80.
[9] abbreviates: dose: 200.0 mg/kg/injection, schedule: Q01DX005 (ip), vehicle: saline with Tween-80.
[10] abbreviates: dose: 25.0 mg/kg/injection, schedule: Q01DX005 (ip), vehicle: Klucel (hydroxypropylcellulose) (HPC).

Where “and” joins values, the source holds several entries; their conditions need not be identical. Identical values can stand only once. Toxic doses and inconclusive results are not listed.

With `CC(=NC(C)(C)C)N1CCOCC1`, the T/C was 101 % of control (dose: 50.0 mg/kg/injection, schedule: Q01DX009 (ip), vehicle: saline + Tween-80 + alcohol); 100 % of control (dose: 100.0 mg/kg/injection, schedule: Q01DX009 (ip), vehicle: saline + Tween-80 + alcohol); 88 % of control (dose: 200.0 mg/kg/injection, schedule: Q01DX009 (ip), vehicle: saline + Tween-80 + alcohol).

On to `COC(=O)[C@@H]1[C@@H]2O[C@@H]2[C@H]2O[C@H]2[C@H]1C(=O)O`, for which the T/C is, setting by setting: (dose: 6.25 mg/kg/injection, schedule: Q01DX001 (ip), vehicle: Klucel (hydroxypropylcellulose) (HPC)) 113 % of control; (dose: 12.5 mg/kg/injection, schedule: Q01DX001 (ip), vehicle: Klucel (hydroxypropylcellulose) (HPC)) 103 % of control; (dose: 25.0 mg/kg/injection, schedule: Q01DX001 (ip), vehicle: Klucel (hydroxypropylcellulose) (HPC)) 100 % of control; (dose: 50.0 mg/kg/injection, schedule: Q01DX001 (ip), vehicle: Klucel (hydroxypropylcellulose) (HPC)) 99 % of control.

Turning to `O=[N+]([O-])c1ccc(-c2nc(/C=N/N3CCCCC3)cs2)s1`, the T/C reads like this: (dose: 25.0 mg/kg/injection, schedule: Q01DX009 (ip), vehicle: saline with Tween-80) 104 % of control; under setting [1], 106 % of control; under setting [2], 109 % of control.

Take `CCN(CC)CCNc1cc2c(c3sc4ccccc4c(=O)c13)CCCC2`: the T/C (dose: 7.8 mg/kg/injection, schedule: Q01DX005 (ip), vehicle: other) is 113 % of control; the T/C (dose: 15.6 mg/kg/injection, schedule: Q01DX005 (ip), vehicle: other) was 110 % of control; the T/C (dose: 31.3 mg/kg/injection, schedule: Q01DX005 (ip), vehicle: other) was 113 % of control; the T/C (dose: 62.5 mg/kg/injection, schedule: Q01DX005 (ip), vehicle: other) is 101 % of control; the T/C (dose: 125.0 mg/kg/injection, schedule: Q01DX005 (ip), vehicle: other) is 104 % of control.

On to `N#CN=CN(Cc1ccccc1)Cc1ccccc1`, for which the T/C under setting [1] is 101 % of control, the T/C under setting [2] was 96 % of control and the T/C under setting [3] is 93 % of control.

As for `CC(=NCCCCN=C(C)c1cc(C)cc([N+](=O)[O-])c1O)c1cc(C)cc([N+](=O)[O-])c1O.[Co]`, the T/C was 92 % of control (dose: 100.0 mg/kg/injection, schedule: Q05DX002 (ip), vehicle: saline with Tween-80); 98 % of control (dose: 200.0 mg/kg/injection, schedule: Q05DX002 (ip), vehicle: saline with Tween-80); 92 % of control (dose: 400.0 mg/kg/injection, schedule: Q05DX002 (ip), vehicle: saline with Tween-80).

Consider `O=NNc1ncc(Sc2ccccc2)nc1Sc1ccccc1`, for which the T/C by setting is: (dose: 6.25 mg/kg/injection, schedule: Q01DX009 (ip), vehicle: water) 103 % of control; under setting [4], 113 % of control; under setting [5], 122 % of control; (dose: 100.0 mg/kg/injection, schedule: Q01DX009 (ip), vehicle: water) 106 % of control.

In the case of `Cc1ccc(S(=O)(=O)CCCCS(=O)(=O)c2ccc(C)cc2)cc1`, the T/C (dose: 60.0 mg/kg/injection, schedule: Q01DX005 (ip), vehicle: saline with Tween-80) is 107 % of control; the T/C (dose: 120.0 mg/kg/injection, schedule: Q01DX005 (ip), vehicle: saline with Tween-80) was 104 % of control; the T/C (dose: 240.0 mg/kg/injection, schedule: Q01DX005 (ip), vehicle: saline with Tween-80) is 97 % of control.

With `CNC(=O)Nc1ccnc(=O)[nH]1`, the T/C under setting [6] is 116 % of control.

As to `Cc1cccc2c(=O)n3c(cc12)-c1[nH]c2ccccc2c1CC3`, the T/C reads like this: (dose: 60.0 mg/kg/injection, schedule: Q01DX005 (ip), vehicle: Klucel (hydroxypropylcellulose) (HPC)) 103 % of control; (dose: 120.0 mg/kg/injection, schedule: Q01DX005 (ip), vehicle: Klucel (hydroxypropylcellulose) (HPC)) 97 % of control; (dose: 240.0 mg/kg/injection, schedule: Q01DX005 (ip), vehicle: Klucel (hydroxypropylcellulose) (HPC)) 96 % of control.

As for `CC(=O)N1C=Cc2ccccc2C1C1NC=Cc2ccccc21` (configuration not stated), the T/C was 96 % of control under setting [7], 94 % of control under setting [8] and 88 % of control under setting [9].

With `COc1cccc2c1C(=O)c1c(O)c3c(c(O)c1C2=O)CC(O)(/C(C)=N/NS(=O)(=O)c1ccc(C)cc1)CC3OC1CC(N)C(O)C(C)O1` (configuration not stated), the T/C was 118 % of control (dose: 0.78 mg/kg/injection, schedule: Q01DX009 (ip), vehicle: water); 113 % of control (dose: 1.56 mg/kg/injection, schedule: Q01DX009 (ip), vehicle: water); 153 % of control under setting [4]; 179 % of control under setting [5].

In the case of `COC(=O)C1=COC(OC2OC(COC(C)=O)C(OC(C)=O)C(OC(C)=O)C2OC(C)=O)C2C(C)CC(OC(C)=O)C12` (configuration not stated), the T/C is 105 % of control (dose: 12.5 mg/kg/injection, schedule: Q01DX005 (ip), vehicle: Klucel (hydroxypropylcellulose) (HPC)); 98 % of control under setting [10]; 96 % of control under setting [6].

In the case of `O=C(CON1C(=O)CCC1=O)c1ccccc1`, the T/C runs as follows: under setting [1], 106 % of control; under setting [2], 112 % of control; under setting [3], 112 % of control.

As to `COc1cc2c(O)c3c(c(-c4ccc5c(c4)OCO5)c2cc1OC)C(=O)OC3`, the T/C was 91 % of control (dose: 25.0 mg/kg/injection, schedule: Q01DX009 (ip), vehicle: Klucel (hydroxypropylcellulose) (HPC)); 100 % of control (dose: 50.0 mg/kg/injection, schedule: Q01DX009 (ip), vehicle: Klucel (hydroxypropylcellulose) (HPC)); 100 % of control (dose: 100.0 mg/kg/injection, schedule: Q01DX009 (ip), vehicle: Klucel (hydroxypropylcellulose) (HPC)); 117 % of control (dose: 200.0 mg/kg/injection, schedule: Q01DX009 (ip), vehicle: Klucel (hydroxypropylcellulose) (HPC)).

On to `C=CC(=O)NCNC(=O)C=C`, for which the T/C reads like this: under setting [2], 172 % of control; (dose: 132.0 mg/kg/injection, schedule: Q04DX003 (ip), vehicle: saline with Tween-80) 118 % of control; (dose: 200.0 mg/kg/injection, schedule: Q04DX003 (ip), vehicle: saline sonified) 159 % of control; (dose: 300.0 mg/kg/injection, schedule: Q04DX003 (ip), vehicle: saline with Tween-80) 181 % of control.

For the compound `Nc1[nH]c(=O)ncc1-c1ccc([N+](=O)[O-])cc1`, the T/C was 95 % of control (dose: 12.5 mg/kg/injection, schedule: Q01DX005 (ip), vehicle: saline with Tween-80); 97 % of control (dose: 25.0 mg/kg/injection, schedule: Q01DX005 (ip), vehicle: saline with Tween-80); 101 % of control and 105 % of control under setting [7].

`C=C1CC(c2ccc(S(=O)(=O)N3CCOCC3)cc2)OC1=O` (configuration not stated): the T/C is, setting by setting: under setting [10], 104 % of control; under setting [6], 120 % of control; (dose: 100.0 mg/kg/injection, schedule: Q01DX005 (ip), vehicle: Klucel (hydroxypropylcellulose) (HPC)) 113 % of control.

Consider `CC(=O)Nc1nnc(-c2cc(=O)c3cc(C)ccc3o2)s1`, for which the T/C was 92 % of control under setting [7], 91 % of control under setting [8] and 90 % of control under setting [9].
